From a melting point compilation (Tetko et al.; mined from patent text by program, amines drawn as free bases though some values may be those of a salt)

Row | melting point [°C] | SMILES
1 | 132 to 134 | CCCNC(=O)C(C)(C)Oc1ccc(-c2ccc(N3CCCCC3)cc2)cc1
2 | 155 to 157 | CN1CC2(COc3cc4c(cc32)OCO4)c2c(Br)cccc21 (stereo unspecified)
3 | 146 to 148 | CCC(CC)C(NS(=O)(=O)c1ccc(Cl)s1)c1ccnn1S(=O)(=O)c1ccc(C)cc1 (stereo unspecified)
4 | 108 to 109 | CCOC(=O)C(=CNc1cscc1OCC)C(=O)OCC
5 | 240 to 242 | NS(=O)(=O)c1cc2c(cc1Cl)C(=O)N(Cc1ccccn1)C2=O
6 | 124 to 126 | COc1ccc(-c2ccc(C#CC(=O)O)s2)cc1C(C)(C)C
7 | 139 to 141 | N#CCc1ccc(-c2ccc(C(CC3CCOCC3)c3ccc(S(=O)(=O)C4CC4)cc3)[nH]2)nc1 (stereo unspecified)
8 | 184 to 188 | Cc1ccc(-c2cc(-c3ccc(O)c(F)c3)nc3ccc(O)cc23)cc1
9 | 156 to 158 | CSc1nnc(-c2nn(C)c(C)c2S(N)(=O)=O)o1
10 | 172 to 174 | COc1cccc2c(CCNC3COc4c(F)ccc(C(N)=O)c4C3)coc12 (stereo unspecified)
11 | 212 | CCN1CCN(C(=O)c2ccc(-c3cc(-c4c(-c5cccc(C)n5)nc5c(C)cccn45)ccn3)cc2)CC1
12 | 122 | O=S(=O)(Nc1cccc(C=C2c3ccccc3CCc3ccccc32)c1)c1ccccc1
13 | 115 to 117 | O=CN(O)C(CO)CS(=O)(=O)c1ccc(Oc2ccc(OC(F)(F)F)cc2)cc1 (stereo unspecified)
14 | 185 to 187 | CCc1nc2c(N)nc(C)c(C)c2n1CCOCCNC(=O)NC(=O)c1ccccc1
15 | 110 to 112 | Cc1c[nH]c2ccc(C#N)cc12
16 | > 260 | CCOC(=O)C=CC(=O)Nc1ccc2c(Nc3cccc(Br)c3)ncnc2c1
17 | 136 to 137 | CCOC(=O)C1=C(C)NC(C#N)=C(C(=O)OCC)C1c1ccccc1Cl (stereo unspecified)
18 | 234 to 236 | N#Cc1c(Nc2cccc(Cl)c2)nn(Cc2ccccc2)c1N
19 | 195 to 197 | COc1cc(OCc2ccccn2)ccc1/C=C/c1cc(/C=C/c2ccc(OCc3ccccn3)cc2OC)[nH]n1
20 | 200 to 201 | CC(=O)Nc1cnc(-c2ccccc2)nc1NCC(=O)N(C)c1ccccc1
21 | 152 to 155 | Oc1ccccc1-c1ccccc1-c1cccc2[pH]c3ccccc3c12 (stereo unspecified)
22 | 174 to 176 | CN(C)CCCn1c2c(c3ccccc31)CC(O)CC2 (stereo unspecified)
23 | 216 | CC1CC(=O)NN=C1c1ccc2nc(C3CC3)n(Cc3ccc(-c4ccccc4-c4nnn[nH]4)cc3)c2c1 (stereo unspecified)

Row | melting point [°C] | SMILES
24 | 232 to 233 | O=C(Cl)c1cc2[nH]c3cc(Cl)ccc3c2o1
25 | 188 | Cc1cccc(C(=O)NN=Cc2ccc3ccccc3n2)c1
26 | 154 to 156 | COC(=O)c1ccc(NC(=O)C(=Cc2ccccc2)C(=O)C(C)C)cc1
27 | 119 to 121 | CCCCc1ccc(NC(=O)c2ccccc2C(c2ccc(O)cc2)c2ccc(O)cc2)cc1
28 | 188 to 190 | CCOC(=O)c1cnc2cn[nH]c2c1Nc1cccs1
29 | 213 to 214 | C=C(F)c1cc(O)cc2nc(-c3ccc(O)c(F)c3)oc12
30 | 225 | CCC1=C(C(=O)OC)C(c2cccc([N+](=O)[O-])c2)c2c(nc(N3CCOCC3)nc2N2CCOCC2)N1 (stereo unspecified)
31 | 101 to 102 | COc1ccc(CC(=O)c2ccc(OC)cc2O)cc1
32 | 143 to 145 | CN1CCCN(C2=Nc3cc(Cl)ccc3Nc3ccccc32)CC1
33 | 184 to 186 | CCN1c2ncccc2C(=O)Nc2c1nc(N(C)C)c(Br)c2C
34 | 155 | C=CCN(C)c1ccc(C(C#N)=C(C#N)C#N)cc1
35 | 146 to 148 | O=C(Nc1ccc(C2=CCN(C(=O)OCc3ccccc3)CC2)cc1)OCc1ccccc1
36 | 161 | COc1ccc(-c2nc(Sc3ccccc3OC)[nH]c2-c2ccc(OC)cc2)cc1
37 | 172 to 173 | O=C(O)C1=Cc2cc(Cl)cc(-c3ccco3)c2OC1C(F)(F)F (stereo unspecified)
38 | 310 to 313 | N=C(N)c1ccc(-n2ncn(-c3ccc(CCC(=O)O)cc3)c2=O)cc1
39 | 104 to 106 | CC(C)CC(C#N)NC(=O)C1CCCCC1NC(=O)OCc1ccccc1 (stereo unspecified)
40 | 168 to 169 | COC(=O)C(Cc1ccccc1)NC(=S)Nc1nc2ccccc2s1 (racemic)
41 | 187 to 189 | FC(F)(F)c1ccc2[nH]c(-c3csc(Cc4c(Cl)cccc4Cl)n3)nc2c1
42 | 132 to 135 | O=C(O)Cc1cccc(Oc2ccccc2)c1O
43 | 192 to 194 | OCc1nc2ccc(OC(F)(F)F)cc2[nH]1
44 | 105 to 107 | CCOC(C)n1cnc(-c2ccc(F)cc2)c1-c1ccc(F)cc1 (stereo unspecified)
45 | 178 to 179 | CCOC(=O)C1NC(C(=O)O)c2[nH]c3cccc(OCc4cccc(Cl)c4)c3c2C1COC (stereo unspecified)
46 | 139 | CC(C)Oc1ccc([N+](=O)[O-])cc1O

Row | melting point [°C] | SMILES
47 | 169 to 172 | O=C(CN1CCN(c2ccc(CO)c(Cl)c2)CC1)c1cc2ccccc2o1
48 | 145 to 146 | FC(F)(F)c1cccc(CNc2ncnc3ccccc23)c1
49 | 218 to 220 | Cc1nc(-n2ccc(OCC3CC3)cc2=O)sc1C(=O)NCc1ccccc1
50 | 89 to 91 | c1ccc(C(OC(c2ccccc2)(c2ccccc2)c2ccccc2)(c2ccccc2)c2ccccc2)cc1
51 | 116 to 117 | COc1ccnc2c1C(=O)CC(c1ccccc1Cl)C2 (stereo unspecified)
52 | 108 to 110 | CC(=O)Nc1cc(OCc2ccc3c(c2)OCO3)c(C(=O)CCCCCl)cc1Cl
53 | 165 to 166 | N#CC(C#N)=Cc1ccc(OS(=O)(=O)c2cc(Cl)c(Cl)cc2Cl)cc1
54 | 82 to 83 | N#Cc1ccc(-c2oncc2CCCO)cc1
55 | 45 to 50 | CC(C)(C)[S@](=O)N1CCCC[C@@H]1c1ccccc1
56 | 66 to 67 | CC(C)SN1N=C(c2ccccc2)C(SC(C)C)(SC(C)C)C1=O
57 | 95 to 97 | COc1nncc(-c2cccc(C(F)(F)F)c2)n1
58 | 169 to 170 | CC(=O)Nc1nc(N(C(C)=O)C(C)=O)c(CC=O)c(=O)[nH]1
59 | 168 to 170 | CN(C(CCn1c(=O)cc(Cl)[nH]c1=O)C(=O)NO)S(=O)(=O)c1ccc(Oc2cccc(Cl)c2)cc1 (stereo unspecified)
60 | 269 to 271 | O=C1CCC(N2Cc3c(OCc4ccc5ccccc5n4)cccc3C2=O)C(=O)N1 (stereo unspecified)
61 | 165 to 167 | CC(=O)N(C)c1nc(-c2ccccc2)c(-c2ccc(=O)n(C(C)C)n2)s1
62 | 137 to 138 | CCc1ccc(OCC(O)CN2CCC3(CC2)CSC2=C(O3)c3ccccc3C(=O)C2=O)cc1 (stereo unspecified)
63 | 85 | CC(C)(Oc1ccc(CCC(=O)c2ccc(-c3ccc(C(F)(F)F)cc3)o2)c(Cl)c1Cl)C(=O)O
64 | 144 to 146 | N#Cc1cc(-n2cccc2)cnc1Cl
65 | 186 to 188 | COc1cc(NC(C)=O)c([N+](=O)[O-])cc1C(=O)O
66 | 135 to 136 | O=C1c2c(Cl)cccc2S(=O)(=O)N1CCl
67 | 206 to 208 | CC(=O)c1oc2ccc(Br)cc2c1NC(=O)c1cnoc1C
68 | 108 to 110 | COC(=O)c1sc(C(C)C)cc1NC(=O)Nc1ccccc1
69 | 170 to 173 | COC(=O)c1nc(N)ccc1O

Row | SMILES | melting point [°C]
70 | CC1CN(c2ccc(N)cc2)CC(C)N1 (stereo unspecified) | 124 to 125
71 | O=CN1CCC2=C(CCCC2)C1Cc1ccc(O)cc1 (stereo unspecified) | 154 to 156
